Measured values reported in patent US9115143B2, “Substituted indole derivatives as gamma secretase modulators” (Janssen Pharmaceuticals, Inc., priority 2011, dated 2015).
pIC50: −log10 of the molar value.

Columns and labels:
Aβtotal = experiment: Screening for γ-secretase-modulating activity: Aβtotal in supernatant of SKNBE2 cells carrying hAPP 695 wild type (Alphalisa); assay type: cell-based, human; conditions: overnight incubation, Alphalisa on supernatant
Protocol: (§1) Pharmacology A) Screening of the Compounds of the Invention for γ-Secretase-Modulating Activity
(§2) Screening was carried out using SKNBE2 human neuroblastoma cells carrying the hAPP 695—wild type, grown in Dulbecco's Modified Eagle's Medium/Nutrient mixture F-12 (DMEM/NUT-mix F-12) (HAM) provided by Invitrogen (cat no. 10371-029) containing 5% Serum/Fe supplemented with 1% non-essential amino acids, 1-glutamine 2 mM, Hepes 15 mM, penicillin 50 U/mL (units/mL) en streptomycin 50 μg/mL. Cells were grown to near confluency.
(§3) The screening was performed using a modification of the assay as described in Citron et al (1997) Nature Medicine 3: 67. Briefly, cells were plated in a 384-well plate at 10^4 cells/well in Ultraculture (Lonza, BE12-725F) supplemented with 1% glutamine (Invitrogen, 25030-024), 1% non-essential amino acid (NEAA), penicillin 50 U/mL en streptomycin 50 μg/mL in the presence of test compound at different test concentrations. The cell/compound mixture was incubated overnight at 37° C., 5% CO2. The next day the media were assayed by two sandwich immuno-assays, for Aβ42 and Aβtotal.
(§4) Aβtotal and Aβ42 concentrations were quantified in the cell supernatant using the Aphalisa technology (Perkin Elmer). Alphalisa is a sandwich assay using biotinylated antibody attached to streptavidin coated donorbeads and antibody conjugated to acceptor beads. In the presence of antigen, the beads come into close proximity. The excitation of the donor beads provokes the release of singlet oxygen molecules that trigger a cascade of energy transfer in the acceptor beads, resulting in light emission. To quantify the amount of Aβ42 in the cell supernatant, monoclonal antibody specific to the C-terminus of Aβ42 (JRF/cAβ42/26) was coupled to the receptor beads and biotinylated antibody specific to the N-terminus of Aβ (JRF/AβN/25) was used to react with the donor beads. To quantify the amount of Aβ total in the cell supernatant, monoclonal antibody specific to the N-terminus of Aβ (JRF/AβN/25) was coupled to the receptor beads and biotinylated antibody specific to the mid region of Aβ (biotinylated 4G8) was used to react with the donor beads.
(§5) To obtain the values reported in Table 3, the data are calculated as percentage of the maximum amount of amyloid Beta 42 measured in the absence of the test compound. The sigmoidal dose response curves were analyzed using nonlinear regression analysis with percentage of the control plotted against the log concentration of the compound. A 4-parameter equation was used to determine the IC50.

Aβ42 = experiment: Screening for γ-secretase-modulating activity: Aβ42 in supernatant of SKNBE2 cells carrying hAPP 695 wild type (Alphalisa); assay type: cell-based, human; conditions: overnight incubation, Alphalisa on supernatant
Protocol: as §1, §2, §3, §4, §5

[1] = Homo sapiens, SKNBE2, SKNBE2 human neuroblastoma cells carrying hAPP 695 wild type
[2] = SKNBE2 human neuroblastoma cells carrying hAPP 695 wild type

| SMILES | pIC50 (Aβtotal; [1]) | pIC50 (Aβ42; [1]) | pIC50 (Aβtotal; [2]) | pIC50 (Aβ42; [2]) |
| --- | --- | --- | --- | --- |
| Cc1cc(-c2ccc3[nH]c(-c4nc5n(n4)CCOC5c4ccc(F)cc4C)cc3c2)ccn1 (stereo not drawn) [Compound 108, 8-(4-fluoro-2-methylphenyl)-5,6-dihydro-2-[5-(2-methyl-4-pyridinyl)-1H-indol-2-yl]-8H-[1,2,4]triazolo[5,1-c][1,4]oxazine] | < 5.00 | 7.40 | – | – |
| COc1c(-n2cnc(C)c2)ccc2[nH]c(-c3cn4c(n3)C(c3ccc(F)cc3C)CCC4)cc12 (single isomer, unassigned) [Compound 79, 8-(4-fluoro-2-methylphenyl)-5,6,7,8-tetrahydro-2-[4-methoxy-5-(4-methyl-1H-imidazol-1-yl)-1H-indol-2-yl]-imidazo[1,2-a]pyridine] | – | – | < 5.00 | 6.73 |
| Cc1cc(F)ccc1C1OCCn2nc(-c3cc4c(OC(C)C)c(C#N)ccc4[nH]3)nc21 (single isomer, unassigned) [Compound 172, 2-[8-(4-fluoro-2-methylphenyl)-5,6-dihydro-8H-[1,2,4]triazolo[5,1-c][1,4]oxazin-2-yl]-4-(1-methylethoxy)-1H-indole-5-carbonitrile] | – | – | < 5.00 | < 5.00 |
| Cc1cn(-c2cnc3[nH]c(-c4nc5n(n4)CCCC5c4ccc(F)cc4C)cc3c2)cn1 (single isomer, unassigned) [Compound 87, 8-(4-fluoro-2-methylphenyl)-5,6,7,8-tetrahydro-2-[5-(4-methyl-1H-imidazol-1-yl)-1H-pyrrolo[2,3-b]pyridin-2-yl]-[1,2,4]triazolo[1,5-a]pyridine] | – | – | < 5.00 | 6.35 |
| Cc1cc(F)ccc1C1CCCn2cc(-c3cc4nc(C#N)ccc4[nH]3)nc21 (stereo not drawn) [Compound 75, 2-[8-(4-fluoro-2-methylphenyl)-5,6,7,8-tetrahydroimidazo[1,2-a]pyridin-2-yl]-1H-pyrrolo[3,2-b]pyridine-5-carbonitrile] | < 5.00 | 6.76 | – | – |
| CCc1cc(F)ccc1C1OCCn2nc(-c3cc4cc(C#N)ccc4[nH]3)nc21 (stereo not drawn) [Compound 95, 2-[8-(2-ethyl-4-fluorophenyl)-5,6-dihydro-8H-[1,2,4]triazolo[5,1-c][1,4]oxazin-2-yl]-1H-indole-5-carbonitrile] | < 5.00 | 6.45 | – | – |
| COCc1ccccc1C1CCCn2nc(-c3cc4c(OC)c(C#N)ccc4[nH]3)nc21 (stereo not drawn) [Compound 91, 4-methoxy-2-[5,6,7,8-tetrahydro-8-[2-(methoxymethyl)phenyl][1,2,4]triazolo[1,5-a]pyridin-2-yl]-1H-indole-5-carbonitrile] | – | – | < 5.00 | 5.92 |
| Cc1ccccc1C1CCCn2nc(-c3cc4cc(C#N)ncc4[nH]3)nc21 (stereo not drawn) [Compound 24, 2-[5,6,7,8-tetrahydro-8-(2-methylphenyl)[1,2,4]triazolo[1,5-a]pyridin-2-yl]-1H-pyrrolo[2,3-c]pyridine-5-carbonitrile] | < 5.00 | 6.59 | – | – |
| COc1cc2[nH]c(-c3nc4n(n3)CCCC4c3ccccc3C(F)(F)F)cc2cc1C#N (stereo not drawn) [Compound 28, 6-methoxy-2-[5,6,7,8-tetrahydro-8-[2-(trifluoromethyl)phenyl][1,2,4]triazolo[1,5-a]pyridin-2-yl]-1H-indole-5-carbonitrile] | < 5.00 | 6.97 | – | – |
| Cc1ccccc1C1CCCn2cc(-c3cc4cc(C#N)ccc4[nH]3)nc21 (stereo not drawn) [Compound 15, 2-[5,6,7,8-tetrahydro-8-(2-methylphenyl)imidazo[1,2-a]pyridin-2-yl]-1H-indole-5-carbonitrile] | < 5.00 | 7.05 | – | – |
| Cc1ccccc1C1CCCn2nc(-c3cc4cc(C#N)ccc4[nH]3)nc21 (stereo not drawn) [Compound 14, 2-[5,6,7,8-tetrahydro-8-(2-methylphenyl)[1,2,4]triazolo[1,5-a]pyridin-2-yl]-1H-indole-5-carbonitrile] | – | – | < 5.00 | 5.53 |

Now from value to compound:

| pIC50 (Aβtotal; [1]) | pIC50 (Aβ42; [1]) | pIC50 (Aβtotal; [2]) | pIC50 (Aβ42; [2]) | SMILES |
| --- | --- | --- | --- | --- |
| – | – | < 5.00 | 6.33 | COc1c(C#N)ccc2[nH]c(-c3cn4c(n3)C(c3cccc(F)c3C)OCC4)cc12 (stereo not drawn) [Compound 42, 2-[8-(3-fluoro-2-methylphenyl)-5,6-dihydro-8H-imidazo[2,1-c][1,4]oxazin-2-yl]-4-methoxy-1H-indole-5-carbonitrile] |
| – | – | < 5.00 | 7.28 | COc1c(C#N)ccc2[nH]c(-c3nc4n(n3)CCOC4c3c(F)cccc3C(F)(F)F)cc12 (stereo not drawn) [Compound 163, 2-[8-[2-fluoro-6-(trifluoromethyl)phenyl]-5,6-dihydro-8H-[1,2,4]triazolo[5,1-c][1,4]oxazin-2-yl]-4-methoxy-1H-indole-5-carbonitrile] |
| – | – | < 5.00 | 6.00 | COc1c(C#N)ccc2[nH]c(-c3nc4n(n3)CCOC4c3cccc(F)c3C(F)(F)F)cc12 (single isomer, unassigned) [Compound 134, 2-[8-[3-fluoro-2-(trifluoromethyl)phenyl]-5,6-dihydro-8H-[1,2,4]triazolo[5,1-c][1,4]oxazin-2-yl]-4-methoxy-1H-indole-5-carbonitrile] |
| < 5.00 | – | – | 7.22 | COc1c(C#N)ccc2[nH]c(-c3cn4c(n3)C(c3cc(C(F)(F)F)ccc3F)OCC4)cc12 (stereo not drawn) [Compound 128, 2-[8-[2-fluoro-5-(trifluoromethyl)phenyl]-5,6-dihydro-8H-imidazo[2,1-c][1,4]oxazin-2-yl]-4-methoxy-1H-indole-5-carbonitrile] |
| < 5.00 | – | – | 7.36 | COc1c(C#N)ccc2[nH]c(-c3nc4n(n3)CCCOC4c3ccc(F)cc3C)cc12 (stereo not drawn) [Compound 52, 2-[9-(4-fluoro-2-methylphenyl)-6,7-dihydro-5H,9H-[1,2,4]triazolo[5,1-c][1,4]oxazepin-2-yl]-4-methoxy-1H-indole-5-carbonitrile] |
| < 5.00 | – | – | 7.34 | COc1c(C#N)ccc2[nH]c(-c3nc4n(n3)CCOC4c3c(C)cccc3F)cc12 (stereo not drawn) [Compound 129, 2-[8-(2-fluoro-6-methylphenyl)-5,6-dihydro-8H-[1,2,4]triazolo[5,1-c][1,4]oxazin-2-yl]-4-methoxy-1H-indole-5-carbonitrile] |
| – | – | < 5.00 | 6.31 | COc1c(C#N)ccc2[nH]c(-c3cn4c(n3)C(c3cccc(F)c3C(F)(F)F)OCC4)cc12 (single isomer, unassigned) [Compound 132, 2-[8-[3-fluoro-2-(trifluoromethyl)phenyl]-5,6-dihydro-8H-imidazo[2,1-c][1,4]oxazin-2-yl]-4-methoxy-1H-indole-5-carbonitrile] |
| – | – | < 5.00 | 5.55 | COc1c(C#N)ccc2[nH]c(-c3cn4c(n3)C(c3c(F)cccc3Cl)OCC4)cc12 (single isomer, unassigned) [Compound 123, 2-[8-(2-chloro-6-fluorophenyl)-5,6-dihydro-8H-imidazo[2,1-c][1,4]oxazin-2-yl]-4-methoxy-1H-indole-5-carbonitrile] |
| – | – | < 5.00 | 5.36 | COc1c(C#N)ccc2[nH]c(-c3cn4c(n3)C(c3cc(C(F)(F)F)ccc3F)OCC4)cc12 (stereo not drawn) [Compound 165, 2-[8-[2-fluoro-5-(trifluoromethyl)phenyl]-5,6-dihydro-8H-imidazo[2,1-c][1,4]oxazin-2-yl]-4-methoxy-1H-indole-5-carbonitrile] |
| < 5.00 | – | – | 6.73 | COc1c(C#N)ccc2[nH]c(-c3cn4c(n3)C(c3ccc(F)c(Cl)c3)OCC4)cc12 (stereo not drawn) [Compound 143, 2-[8-(3-chloro-4-fluorophenyl)-5,6-dihydro-8H-imidazo[2,1-c][1,4]oxazin-2-yl]-4-methoxy-1H-indole-5-carbonitrile] |
